The subject of series [1] is Staphylococcus epidermidis ATCC 12228. Put plainly: in vitro minimum inhibitory concentration, Staphylococcus epidermidis ATCC 12228. It counts as cell-based.
Series [2] concerns Bacillus subtilis ATCC 6633. Description: in vitro minimum inhibitory concentration, Bacillus subtilis ATCC 6633. Type of series: cell-based.
The subject of series [3] is Bacillus cereus var. mycoides ATCC 11778. Description: microbe, parasite or virus in culture. It counts as cell-based. To be noted: ATCC11778, read-out: minimum inhibitory concentrations (MIC).
For series [4], the system named is Staphylococcus aureus ATCC 6538-P. Put plainly: in vitro minimum inhibitory concentration, Staphylococcus aureus ATCC 6538-P. It counts as cell-based.
The next series concerns Sarcina lutea ATCC 9341. Put plainly: in vitro minimum inhibitory concentration, Sarcina lutea ATCC 9341. It counts as cell-based. The settings on record: Micrococcus luteus, ATCC9341, read-out: minimum inhibitory concentrations (MIC).
The test system of series [5] is Streptococcus faecalis ATCC 8043. Put plainly: in vitro minimum inhibitory concentration, Streptococcus faecalis ATCC 8043. To be noted: Enterococcus faecalis. It counts as cell-based.
In series [6] the test system is Micrococcus flavus ATCC 10240. Description: in vitro minimum inhibitory concentration, Micrococcus flavus ATCC 10240. Type of series: cell-based.
For another series, the system named is Salmonella panama. Put plainly: in vitro minimum inhibitory concentration, Salmonella panama. Type of series: cell-based. The settings on record: Salmonella enterica, read-out: minimum inhibitory concentrations (MIC).
Series [7] relates to Staphylococcus aureus ATCC 6538-P. Put plainly: stability in acid medium: MIC after exposure to 1 N HCl. It counts as cell-based. The settings on record: for MIC: ATCC6538, pH 1.2, Staphylococcus aureus ATCC 6538-P.
For series [8], the system named is Pseudomonas aeruginosa NCTC 10490. Put plainly: in vitro minimum inhibitory concentration, Pseudomonas aeruginosa NCTC 10490. It counts as cell-based.
The subject of series [9] is Escherichia coli ATCC 10536. Description: in vitro minimum inhibitory concentration, Escherichia coli ATCC 10536. It counts as cell-based. The settings on record: ATCC10536, read-out: minimum inhibitory concentrations (MIC).
The subject of series [10] is Brucella bronchiseptica ATCC 4617. Put plainly: microbe, parasite or virus in culture. To be noted: Bordetella bronchiseptica, ATCC4617, read-out: minimum inhibitory concentrations (MIC). It counts as cell-based.
Series [11] is described as follows: acute i.v. toxicity in albino mice (Litchfield-Wilcoxon). To be noted: mouse, in vivo, iv; acute i.v., albino mice.
Series [12] has as its system Shigella flexneri II-1819/C. Description: in vitro minimum inhibitory concentration, Shigella flexneri II-1819/C. It counts as cell-based. The settings on record: II1819/C, read-out: minimum inhibitory concentrations (MIC). The procedure:
In order to examine the antibacterial action, some new compounds were tested in vitro on a series of gram-positive and gram-negative micro-organisms. The results are shown in Table 1 as minimum inhibitory concentrations (MIC) in mcg/ml in comparision with erythromycin A erythromycin A oxime.

The subject of series [13] is Klebsiella pneumoniae ATCC 10031. Put plainly: in vitro minimum inhibitory concentration, Klebsiella pneumoniae ATCC 10031. It counts as cell-based.
The test system of series [14] is Corynebacterium xerosis NCTC 9755. Description: in vitro minimum inhibitory concentration, Corynebacterium xerosis NCTC 9755. It counts as cell-based.
The mark [15] stands for this setting: ATCC12228, in vitro, Staphylococcus epidermidis ATCC 12228, read-out: minimum inhibitory concentrations (MIC).
Setting [16] is: ATCC6633, in vitro, Bacillus subtilis ATCC 6633, read-out: minimum inhibitory concentrations (MIC).
[17] abbreviates: ATCC6538, in vitro, Staphylococcus aureus ATCC 6538-P, read-out: minimum inhibitory concentrations (MIC).
Where [18] appears, read: ATCC8043, read-out: minimum inhibitory concentrations (MIC).
[19] abbreviates: Micrococcus flavus, ATCC10240, read-out: minimum inhibitory concentrations (MIC).
Setting [20] is: exposure time 1/2 hour, 1 N HCl.
The mark [21] stands for this setting: ATCC8043, in vitro, Streptococcus faecalis ATCC 8043, read-out: minimum inhibitory concentrations (MIC).
Setting [22] is: ATCC10240, in vitro, Micrococcus flavus ATCC 10240, read-out: minimum inhibitory concentrations (MIC).
The mark [23] stands for this setting: 1 N HCl, pH 1.2, 30 minutes to 6 hours.

Converted amounts (≈) assume the structure as drawn. Read-outs that look alike come from different tables or passages of the source.

Turning to `CC[C@H]1OC(=O)[C@H](C)[C@@H](O[C@H]2C[C@@](C)(OC)[C@@H](OC(C)=O)[C@H](C)O2)[C@H](C)[C@@H](O[C@@H]2O[C@H](C)C[C@H](N(C)C)[C@H]2OC(C)=O)[C@](C)(O)C[C@@H](C)CN(C(C)=O)[C@H](C)[C@@H](OC(C)=O)[C@]1(C)O` [Compound IV, 2',4",13,N-tetraacetyl-11-aza-10-deoxo-10-dihydroerythromycin A], the MIC in series [1] (setting [15]) was 200 µg/mL (≈ 221 µM); in series [2] (setting [16]) it was 200 µg/mL (≈ 221 µM); in [3], 175 µg/mL (≈ 194 µM); in [4] (setting [17]) it was 200 µg/mL (≈ 221 µM); in the series with Sarcina lutea ATCC 9341 it was 10 µg/mL (≈ 11.1 µM); in [5] (setting [18]) it was 175 µg/mL (≈ 194 µM). The MIC in [6] (setting [19]) turned out to be 175 µg/mL (≈ 194 µM).
Usually LD50 stands for the dose expected to kill half of the subjects tested. Read a low LD50 as a more toxic substance. For the compound `CC[C@H]1OC(=O)[C@H](C)[C@@H](O[C@H]2C[C@@](C)(OC)[C@@H](O)[C@H](C)O2)[C@H](C)[C@@H](O[C@@H]2O[C@H](C)C[C@H](N(C)C)[C@H]2O)[C@](C)(O)C[C@@H](C)C(=NO)[C@H](C)[C@@H](O)[C@]1(C)O` [EO, erythromycin A oxime, reference compound], the MIC was 0.1 µg/mL (≈ 0.134 µM) in series [1] (setting [15]); 50 µg/mL (≈ 66.8 µM) in the series on Salmonella panama (in vitro, Salmonella panama); 0.1 µg/mL (≈ 0.134 µM) in series [2] (setting [16]); 0.1 µg/mL (≈ 0.134 µM) in series [3]; 0.1 µg/mL (≈ 0.134 µM) in [7] (exposure time 0 hours); 0.1 µg/mL (≈ 0.134 µM) in series [7] (setting [20]). Also, the MIC in series [7] (exposure time 1 hour, 1 N HCl) was 0.1 µg/mL (≈ 0.134 µM); in series [7] (exposure time 2 hours, 1 N HCl) it was 0.5 µg/mL (≈ 0.668 µM); in series [7] (exposure time 3 hours, 1 N HCl), 0.5 µg/mL (≈ 0.668 µM); in series [7] (exposure time 6 hours, 1 N HCl), 0.5 µg/mL (≈ 0.668 µM); in series [8] (NCTC10490, in vitro, Pseudomonas aeruginosa NCTC 10490, read-out: minimum inhibitory concentrations (MIC)), 50 µg/mL (≈ 66.8 µM); in series [9], 25 µg/mL (≈ 33.4 µM). The MIC in series [10] was 1 µg/mL (≈ 1.34 µM); in series [4] (setting [17]), 0.5 µg/mL (≈ 0.668 µM); in series [12], 50 µg/mL (≈ 66.8 µM); with Sarcina lutea ATCC 9341 it was 0.05 µg/mL (≈ 0.0668 µM); in series [13] (ATCC10031, in vitro, Klebsiella pneumoniae ATCC 10031, read-out: minimum inhibitory concentrations (MIC)) it was 5 µg/mL (≈ 6.68 µM); in [14] (NCTC9755, in vitro, Corynebacterium xerosis NCTC 9755, read-out: minimum inhibitory concentrations (MIC)) it was 0.1 µg/mL (≈ 0.134 µM). Further, the values for the MIC in series [5] (setting [21]) and in series [6] (setting [22]) were 0.05 µg/mL (≈ 0.0668 µM) and 0.1 µg/mL (≈ 0.134 µM), respectively. For the same compound, in series [11], the LD50 amounted to 74 mg/kg.
Consider `CC[C@H]1OC(=O)[C@H](C)[C@@H](O[C@H]2C[C@@](C)(OC)[C@@H](O)[C@H](C)O2)[C@H](C)[C@@H](O[C@@H]2O[C@H](C)C[C@H](N(C)C)[C@H]2O)[C@](C)(O)C[C@@H](C)CN[C@H](C)[C@H]2OC(=O)O[C@@]21C` [Compound VI, 11-aza-10-deoxo-10-dihydroerythromycin A cyclic 13,14-carbonate], for which the MIC was found to be 2.5 µg/mL (≈ 3.29 µM) in [1] (setting [15]); 0.5 µg/mL (≈ 0.657 µM) in [2] (setting [16]); 2.5 µg/mL (≈ 3.29 µM) in series [3]; 1 µg/mL (≈ 1.31 µM) in series [7] (exposure time 0 hours); 1 µg/mL (≈ 1.31 µM) in [7] (setting [20]); 1 µg/mL (≈ 1.31 µM) in [7] (exposure time 1 hour, 1 N HCl). Moreover, the MIC in series [7] (exposure time 2 hours, 1 N HCl) is 2.5 µg/mL (≈ 3.29 µM); in series [7] (exposure time 3 hours, 1 N HCl) it was 2.5 µg/mL (≈ 3.29 µM); in series [7] (exposure time 6 hours, 1 N HCl), 2.5 µg/mL (≈ 3.29 µM); in series [4] (setting [17]), 1 µg/mL (≈ 1.31 µM); in the series with Sarcina lutea ATCC 9341, 0.1 µg/mL (≈ 0.131 µM); in series [5] (setting [21]) it was 0.05 µg/mL (≈ 0.0657 µM). Also, in series [6] (setting [22]), the MIC is 0.5 µg/mL (≈ 0.657 µM). Moreover, the “stability in acid medium compared with erythromycin A” value in [7] (setting [23]) was “significantly more stable than erythromycin A”. Also, in [7] (setting [23]), the “stability in acid medium compared with erythromycin A oxime” value is on record as “within the range of that of the starting antibioticum erythromycin A oxime”.
As for `CC[C@H]1OC(=O)[C@H](C)[C@@H](O[C@H]2C[C@@](C)(OC)[C@@H](O)[C@H](C)O2)[C@H](C)[C@@H](O[C@@H]2O[C@H](C)C[C@H](N(C)C)[C@H]2O)[C@](C)(O)C[C@@H](C)CN(S(=O)(=O)c2ccc(C)cc2)[C@H](C)[C@@H](O)[C@]1(C)O` [Compound VIII, N-(4-methyl-benzenesulfonyl)-11-aza-10-deoxo-10-dihydroerythromycin A], the MIC in [1] (setting [15]) came out at 100 µg/mL (≈ 112 µM); in series [2] (setting [16]), 100 µg/mL (≈ 112 µM); in series [3] it was 50 µg/mL (≈ 56.2 µM); in series [4] (setting [17]), 100 µg/mL (≈ 112 µM); in the series on Sarcina lutea ATCC 9341, 50 µg/mL (≈ 56.2 µM); in series [5] (setting [21]) it was 20 µg/mL (≈ 22.5 µM). For the same compound, in series [6] (setting [22]), the MIC was 20 µg/mL (≈ 22.5 µM).
Turning to `CC[C@H]1OC(=O)[C@H](C)[C@@H](O[C@H]2C[C@@](C)(OC)[C@@H](O)[C@H](C)O2)[C@H](C)[C@@H](O[C@@H]2O[C@H](C)C[C@H](N(C)C)[C@H]2O)[C@](C)(O)C[C@@H](C)C(=O)[C@H](C)[C@@H](O)[C@]1(C)O` [E, erythromycin A], the MIC in [1] (Staphylococcus epidermidis, ATCC12228, read-out: minimum inhibitory concentrations (MIC)) stood at 0.1 µg/mL (≈ 0.136 µM); with Salmonella panama, 50 µg/mL (≈ 68.1 µM); in [2] (Bacillus subtilis, ATCC6633, read-out: minimum inhibitory concentrations (MIC)), 0.05 µg/mL (≈ 0.0681 µM); in [3] it was 0.1 µg/mL (≈ 0.136 µM); in series [7] (exposure time 0 hours), 0.5 µg/mL (≈ 0.681 µM); in [7] (setting [20]), 7.5 µg/mL (≈ 10.2 µM). For the same compound, the MIC in series [7] (exposure time 1 hour, 1 N HCl) was 10 µg/mL (≈ 13.6 µM); in [7] (exposure time 2 hours, 1 N HCl) it was 10 µg/mL (≈ 13.6 µM); in [7] (exposure time 3 hours, 1 N HCl), 10 µg/mL (≈ 13.6 µM); in series [7] (exposure time 6 hours, 1 N HCl), 20 µg/mL (≈ 27.3 µM); in series [8] (Pseudomonas aeruginosa, NCTC10490, read-out: minimum inhibitory concentrations (MIC)) it was 50 µg/mL (≈ 68.1 µM); in series [9], 25 µg/mL (≈ 34.1 µM). In addition, the MIC in [10] was found to be 1 µg/mL (≈ 1.36 µM); in [4] (Staphylococcus aureus, ATCC6538, read-out: minimum inhibitory concentrations (MIC)), 0.5 µg/mL (≈ 0.681 µM); in series [12], 25 µg/mL (≈ 34.1 µM); in the series with Sarcina lutea ATCC 9341, 0.05 µg/mL (≈ 0.0681 µM); in [13] (Klebsiella pneumoniae, ATCC10031, read-out: minimum inhibitory concentrations (MIC)), 5 µg/mL (≈ 6.81 µM); in series [14] (Corynebacterium xerosis, NCTC9755, read-out: minimum inhibitory concentrations (MIC)), 0.1 µg/mL (≈ 0.136 µM). For the same compound, the MIC in [5] (setting [18]) and in series [6] (setting [19]) was 0.05 µg/mL (≈ 0.0681 µM) in each case.

The record behind these values is patent publication US4328334A, “11-Aza-10-deoxo-10-dihydroerythromycin A and derivatives thereof as well as a process for their preparation” (PLIVA Pharmaceutical and Chemical Works, priority 1979, dated 1982).
